{"source": "patent US20230137849A1", "about": "“USE OF A COMPOUND OF THE DIURETICS CLASS FOR TREATING CANCER” (AZELEAD, priority 2017, published 2023)", "key": {"zebrafish embryo": {"tested_on": "zebrafish embryo", "details": "in vivo", "procedure": "The toxicity study is carried out over 72 hours. The embryos are treated at 25 hpf with the doses used for the test of chemical compounds of each of the compounds, in a 96-well plate, in a final volume of 100 μl of the embryonic growth medium. The embryos are incubated 72 h at 28° C. The medium is changed every 24 hours. The survival rate of embryos and the appearance of developmental defects are analyzed daily.\nAt the same time, we analyzed the toxicity of althiazide after balancing with a solution containing althiazide at concentrations of 1 μM, 10 μM, 100 μM, 1000 μM for 24, 48 and 72 hours. The toxicity study was based on analysis of the percentage viability of the embryos after treatment. At concentrations of 1 μM, 10 μM and 100 μM, althiazide causes no toxicity even after 72 hours of treatment. A 50% toxicity is observed after treatment for 24 hours, the althiazide at the concentration of 1 mM."}, "4T1 cells": {"tested_on": "4T1 cells", "format": "cell-based, mouse", "details": "FIG. 8", "procedure": "The cytotoxicity tests are carried out in cell culture in 96-well plates, on the 4T1 cell line. The cells are maintained in a DMEM culture medium supplemented with 10% fetal calf serum (control condition) or placed in the presence of an MTT solution (3-(4,5-dimethylthiazol-2-yl)-2,5-diphenyl tetrazolium bromide) at 1 mg/ml in DMEM medium supplemented with 10% fetal calf serum (100 μl per well). The cells are incubated at 37° C. and 5% CO2 for 4 hours. The reaction is stopped by the addition of 100 μl of a solution containing 10% of SDS and 0.01 M of HCl. The cells are placed in an incubator at 37° C. and 5% CO2 for 2 hours. The absorbance is measured between 570 and 590 nm. The negative control is performed on a well without cells, containing 200 μl of a 1 mg/ml solution of MTT diluted in DMEM culture medium supplemented with 10% fetal calf serum. The average of the measurements obtained is compared with the control wells: (average value of the compounds treated/average value of the controls)*100=% of the average value.\nThe 4T1 cells are derived from tumors of the mammary gland in mice.\nIn order to study the cytotoxic effects of althiazide in vitro, we analyze the cell death induced by treatment with althiazide by tetrazolium salt labeling MTT (3-(4,5-dimethylthiazol-2-yl)-2,5-diphenyltetrazolium bromide) on 4T1 cells. The amount of living cells in the well is assayed by spectrometry. The results are compared with those obtained after treatment with the control solution (FIG. 8). In this test, we observe a very low mortality of cells after treatment with althiazide (80% of living cells at the highest dose 100 μM). Cells treated with dasatinib have a much higher mortality rate, at much lower doses (80% live cells at the lowest 10 nM dose and 20% live cells at 100 μM)."}}, "note": "Where two headings read alike, the source gives them in different places.", "data": [{"smiles": "Cc1nc(Nc2ncc(C(=O)Nc3c(C)cccc3Cl)s2)cc(N2CCN(CCO)CC2)n1", "note": "[dasatinib]", "values": [{"measurement": "toxicity on the embryo in comparison with althiazide doses", "setting": "zebrafish embryo", "result": "very high toxicity"}, {"measurement": "living cells (MTT)", "setting": "4T1 cells; highest dose 100 μM", "result": 20, "unit": "%"}, {"measurement": "living cells (MTT)", "setting": "4T1 cells; lowest dose 10 nM", "result": 80, "unit": "%"}]}]}
